Legend:
[1] = Intravenous pharmacokinetic study (KP415.A03) in recreational stimulant users; conditions: human, in vivo, iv
Method: A study was conducted in humans to assess the intravenous abuse potential of serdexmethylphenidate relative to unconjugated d-methylphenidate and placebo in recreational stimulant abusers. This was a Phase 1, randomized, double-blind study in which serdexmethylphenidate and d-methylphenidate were administered intravenously in recreational stimulant users with a history of non-oral abuse. In Part A of the study, subjects (Cohort 1) participated in a dose-escalation phase to determine the optimal dose of intravenous d-methylphenidate based on tolerability and abuse-related pharmacodynamic assessments. […] The doses of serdexmethylphenidate and d-methylphenidate are equivalent with respect to molar amount of d-methylphenidate. FDA-recommended abuse potential measures and blood samples were collected at different times after dosing. Safety assessments were performed throughout the study.

[2] = test system: healthy, nondependent, recreational stimulant users; experiment: Oral abuse potential study, VAS pharmacodynamic assessments; conditions: for Mean Difference Any Effects Emax, B vs E / Mean Difference Bad Effects Emax, B vs E / Mean Difference Feeling Alert/Drowsy Emax, B vs E / Mean Difference Feeling High Emax, B vs E / Mean Difference Good Effects Emax, B vs E / Mean Difference Overall Drug Liking Emax, B vs E / Mean Difference Take Drug Again Emax, B vs E / Mean Difference Drug Liking Emax, B vs E: SDX Cl 240 mg vs placebo
[3] = Focalin XR 80 mg vs SDX Cl 120 mg
[4] = Focalin XR 80 mg vs SDX Cl 240 mg
[5] = SDX Cl 120 mg vs placebo, listed as SDX chloride
[6] = phentermine HCl 60 mg vs SDX Cl 120 mg
[7] = phentermine HCl 60 mg vs SDX Cl 240 mg
[8] = phentermine HCl 60 mg vs SDX Cl 240 mg, listed as SDX chloride

COC(=O)[C@H](c1ccccc1)[C@H]1CCCCN1C(=O)OC[n+]1cccc(C(=O)N[C@@H](CO)C(=O)O)c1.[Cl-] [serdexmethylphenidate chloride]
AUCinf [1]: 31.0 | AUCinf, GLSM [1]: 28.9 ng·h/mL | AUCinf, GLSM Ratio A/B [1]: 12.2% | AUClast [1]: 25.7 | AUClast, GLSM [1]: 23.8 ng·h/mL | AUClast, GLSM Ratio A/B [1]: 10.2% | Cmax [1]: 12.9 ng/mL | Cmax, GLSM [1]: 12.1 ng/mL | Cmax, GLSM Ratio A/B [1]: 20.8% | T1/2 [1]: 8.23 h | Tmax [1]: 5.93 min | Mean Difference Any Effects Emax, C vs A [2, 3]: statistically lower | Mean Difference Bad Effects Emax, C vs A [2, 3]: statistically lower | Mean Difference Feeling Alert/Drowsy Emax, C vs A [2, 3]: statistically lower | Mean Difference Feeling High Emax, C vs A [2, 3]: statistically lower | Mean Difference Good Effects Emax, C vs A [2, 3]: statistically lower | Mean Difference Overall Drug Liking Emax, C vs A [2, 3]: about 4.5 | Mean Difference Take Drug Again Emax, C vs A [2, 3]: not statistically significant | Mean Difference Overall Drug Liking Emax, C vs A ([2]; Focalin XR 80 mg vs SDX Cl 120 mg, listed as SDX chloride): not statistically significant | Mean Difference Drug Liking Emax, C vs A ([2]; Focalin XR 80 mg vs SDX Cl 120 mg, margin 10): at least 18.2 | Mean Difference Drug Liking Emax, C vs A ([2]; Focalin XR 80 mg vs SDX Cl 120 mg, margin 10, listed as SDX chloride): statistically significantly lower | Mean Difference Any Effects Emax, C vs B [2, 4]: statistically lower | Mean Difference Bad Effects Emax, C vs B [2, 4]: statistically lower | Mean Difference Feeling Alert/Drowsy Emax, C vs B [2, 4]: statistically lower | Mean Difference Feeling High Emax, C vs B [2, 4]: statistically lower | Mean Difference Good Effects Emax, C vs B [2, 4]: statistically lower | Mean Difference Overall Drug Liking Emax, C vs B [2, 4]: about 5.0 | Mean Difference Take Drug Again Emax, C vs B [2, 4]: not statistically significant | Mean Difference Overall Drug Liking Emax, C vs B ([2]; Focalin XR 80 mg vs SDX Cl 240 mg, listed as SDX chloride): not statistically significant | Mean Difference Drug Liking Emax, C vs B ([2]; Focalin XR 80 mg vs SDX Cl 240 mg, margin 10): at least 16.7 | Mean Difference Drug Liking Emax, C vs B ([2]; Focalin XR 80 mg vs SDX Cl 240 mg, margin 10, listed as SDX chloride): statistically significantly lower | Mean Difference Any Effects Emax, A vs E ([2]; SDX Cl 120 mg vs placebo): 11.0 | Mean Difference Bad Effects Emax, A vs E ([2]; SDX Cl 120 mg vs placebo): 1.3 | Mean Difference Feeling Alert/Drowsy Emax, A vs E ([2]; SDX Cl 120 mg vs placebo): 7.7 | Mean Difference Feeling High Emax, A vs E ([2]; SDX Cl 120 mg vs placebo): 10.4 | Mean Difference Good Effects Emax, A vs E ([2]; SDX Cl 120 mg vs placebo): 12.1 | Mean Difference Overall Drug Liking Emax, A vs E ([2]; SDX Cl 120 mg vs placebo): 3.8 | Mean Difference Take Drug Again Emax, A vs E ([2]; SDX Cl 120 mg vs placebo): 2.2 | Mean Difference Bad Effects Emax, A vs E [2, 5]: not statistically different | Mean Difference Feeling Alert/Drowsy Emax, A vs E [2, 5]: statistically higher | Mean Difference Good Effects Emax, A vs E [2, 5]: statistically higher | Mean Difference Overall Drug Liking Emax, A vs E [2, 5]: not statistically different | Mean Difference Take Drug Again Emax, A vs E [2, 5]: not statistically different | Mean Difference Drug Liking Emax, A vs E ([2]; SDX Cl 120 mg vs placebo, margin 11): 6.8 | Mean Difference Drug Liking Emax, A vs E ([2]; SDX Cl 120 mg vs placebo, margin 11, listed as SDX chloride): not statistically non-inferior | Drug Liking Emax, Median ([2]; SDX Cl 120 mg, bipolar VAS): 53.0 | Feeling Alert/Drowsy Emax, Median ([2]; SDX Cl 120 mg, bipolar VAS): 54.0 | Overall Drug Liking Emax, Median ([2]; SDX Cl 120 mg, bipolar VAS): 50.0 | Take Drug Again Emax, Median ([2]; SDX Cl 120 mg, bipolar VAS): 50.0 | Any Effects Emax, Median ([2]; SDX Cl 120 mg, unipolar VAS): 14.0 | Bad Effects Emax, Median ([2]; SDX Cl 120 mg, unipolar VAS): 0.0 | Feeling High Emax, Median ([2]; SDX Cl 120 mg, unipolar VAS): 7.0 | Good Effects Emax, Mean ([2]; SDX Cl 120 mg, unipolar VAS): 27.0 | Good Effects Emax, Median ([2]; SDX Cl 120 mg, unipolar VAS): 10.0 | Mean Difference Any Effects Emax, B vs E [2]: 20.5 | Mean Difference Bad Effects Emax, B vs E [2]: 8.6 | Mean Difference Feeling Alert/Drowsy Emax, B vs E [2]: 11.2 | Mean Difference Feeling High Emax, B vs E [2]: 18.8 | Mean Difference Good Effects Emax, B vs E [2]: 17.4 | Mean Difference Overall Drug Liking Emax, B vs E [2]: 3.3 | Mean Difference Take Drug Again Emax, B vs E [2]: 1.7 | Mean Difference Any Effects Emax, B vs E ([2]; listed as SDX chloride): statistically higher | Mean Difference Bad Effects Emax, B vs E ([2]; listed as SDX chloride): statistically higher | Mean Difference Feeling Alert/Drowsy Emax, B vs E ([2]; listed as SDX chloride): statistically higher | Mean Difference Feeling High Emax, B vs E ([2]; listed as SDX chloride): statistically higher | Mean Difference Good Effects Emax, B vs E ([2]; listed as SDX chloride): statistically higher | Mean Difference Overall Drug Liking Emax, B vs E ([2]; listed as SDX chloride): not statistically different | Mean Difference Take Drug Again Emax, B vs E ([2]; listed as SDX chloride): not statistically different | Mean Difference Drug Liking Emax, B vs E ([2]; margin 11): 8.3 | Mean Difference Drug Liking Emax, B vs E ([2]; margin 11, listed as SDX chloride): not statistically non-inferior | Mean Difference Any Effects Emax, D vs A [2, 6]: statistically lower | Mean Difference Bad Effects Emax, D vs A [2, 6]: statistically lower | Mean Difference Feeling Alert/Drowsy Emax, D vs A [2, 6]: statistically lower | Mean Difference Feeling High Emax, D vs A [2, 6]: statistically lower | Mean Difference Good Effects Emax, D vs A [2, 6]: statistically lower | Mean Difference Overall Drug Liking Emax, D vs A [2, 6]: about 14.9 | Mean Difference Take Drug Again Emax, D vs A [2, 6]: statistically lower | Mean Difference Overall Drug Liking Emax, D vs A ([2]; phentermine HCl 60 mg vs SDX Cl 120 mg, listed as SDX chloride): statistically lower | Mean Difference Drug Liking Emax, D vs A ([2]; phentermine HCl 60 mg vs SDX Cl 120 mg, margin 10): at least 15.5 | Mean Difference Drug Liking Emax, D vs A ([2]; phentermine HCl 60 mg vs SDX Cl 120 mg, margin 10, listed as SDX chloride): statistically significantly lower | Mean Difference Any Effects Emax, D vs B [2, 7]: statistically lower | Mean Difference Bad Effects Emax, D vs B [2, 7]: statistically similar | Mean Difference Feeling Alert/Drowsy Emax, D vs B [2, 7]: statistically lower | Mean Difference Feeling High Emax, D vs B [2, 7]: statistically lower | Mean Difference Good Effects Emax, D vs B [2, 7]: statistically lower | Mean Difference Overall Drug Liking Emax, D vs B [2, 7]: about 15.3 | Mean Difference Take Drug Again Emax, D vs B [2, 7]: 15.4 | Mean Difference Overall Drug Liking Emax, D vs B [2, 8]: statistically lower | Mean Difference Take Drug Again Emax, D vs B [2, 8]: statistically lower | Mean Difference Drug Liking Emax, D vs B ([2]; phentermine HCl 60 mg vs SDX Cl 240 mg, margin 10): at least 14.0 | Mean Difference Drug Liking Emax, D vs B ([2]; phentermine HCl 60 mg vs SDX Cl 240 mg, margin 10, listed as SDX chloride): not statistically greater than 10 points

Source: patent publication US20200237742A1, “Serdexmethylphenidate Conjugates, Compositions And Methods Of Use Thereof” (priority 2018, published 2020)
